Measured values taken from PubChem BioAssay AID1053178 (The Scripps Research Institute Molecular Screening Center, 2014).
Activity calls are given as the source filed them.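 The calls were made as follows: active = IC50 at or below 10 µM; inactive = IC50 above 10 µM.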

target: Trace amine-associated receptor 1 (Homo sapiens) (UniProt Q96RJ0); assay: TAAR1 antagonists lowering PEA-driven cAMP, late-stage follow-up, cell-based, fluorescence, human, MDRUN002 (AID 1053178); conditions: CHO TAAR1 cells, cAMP TR-FRET, PEA-stimulated antagonism
Sequence (Q96RJ0 whole entry, looked up): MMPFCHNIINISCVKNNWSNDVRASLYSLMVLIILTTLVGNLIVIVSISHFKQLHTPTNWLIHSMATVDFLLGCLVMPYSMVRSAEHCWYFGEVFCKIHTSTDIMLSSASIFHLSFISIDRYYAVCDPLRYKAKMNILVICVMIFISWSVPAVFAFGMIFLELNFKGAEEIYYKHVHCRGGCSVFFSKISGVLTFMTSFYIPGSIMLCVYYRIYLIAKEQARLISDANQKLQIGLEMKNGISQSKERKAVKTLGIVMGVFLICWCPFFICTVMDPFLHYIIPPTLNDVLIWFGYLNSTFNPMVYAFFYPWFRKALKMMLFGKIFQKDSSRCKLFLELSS

SMILES	IC50
N#Cc1c(C(F)(F)F)cc(-c2ccc(Cl)cc2)nc1SCC(=O)N1CCCCCC1	inactive
COc1cc(C(=O)CCN2CCC(c3ccccc3)C2)cc(OC)c1OC (configuration not stated)	> 37.4 µM (inactive)
O=C(CCN1CCC(c2ccccc2)C1)c1ccccc1 (configuration not stated)	> 37.4 µM (inactive)
N#Cc1c(C(F)(F)F)cc(-c2ccc(Cl)cc2)nc1SCC(=O)Nc1ncccn1	0.00433 µM
N#Cc1c(C(F)(F)F)cc(-c2ccc(Cl)cc2)nc1SCC(=O)N1CCCC1	0.179 µM
CC(CN1CCCC1Cc1ccccc1)C(=O)c1ccc2c(c1)OCCO2 (configuration not stated)	> 37.4 µM (inactive)
Cc1ccc(C(=O)CCN2CCC(c3ccccc3)C2)cc1 (configuration not stated)	> 37.4 µM (inactive)
